{
  "source": "patent US20130196052A1",
  "about": "“ANTIMICROBIAL/ANTIBACTERIAL MEDICAL DEVICES COATED WITH TRADITIONAL CHINESE MEDICINES” (ETHICON, INC., priority 2009, published 2013)",
  "key": {"susceptible strains": {"tested_on": "susceptible strains", "details": "in words; cited from earlier work"}, "[1]": {"tested_on": "Micrococcus catarrhalis, Staphylococcus aureus, Bacillus influenzae, pneumococcus, Escherichia coli, Bacillus dysenteria, Bacillus proteus, Bacillus …", "details": "in words; cited from earlier work"}, "[2]": {"tested_on": "Bacillus typhi, and Leptopira", "details": "in words; cited from earlier work"}, "[3]": {"details": "in words; cited from earlier work"}, "[4]": {"assay": "Particle size analysis by laser diffraction", "format": "physicochemical", "details": "commercial grade, needle-like crystals", "protocol": "Studies were run using sutures coated with the sodium houttuyfonate antimicrobial coatings disclosed herein, with the sodium houttuyfonate coatings prepared using either ground or unground sodium houttuyfonate. The sutures were coated at two coating levels, using the coating method described hereinabove. Particle size analysis was performed using a Beckman Coulter model LS 320 laser diffraction particle size analyzer. Results for these studies are presented below in Tables 5-7 and graphically depicted in FIGS. 1 and 2."}, "[5]": {"details": "cited from earlier work"}},
  "data": [
    {"smiles": "Oc1cc(Cl)ccc1Oc1ccc(Cl)cc1Cl", "note": "[triclosan]", "values": [
      {"measurement": "mode of antibacterial activity", "setting": "susceptible strains", "value": "predominantly bacteriostatic activity"}
    ]},
    {"smiles": "CCCCCCCCCC(=O)CC=O", "note": "[Houttuynin, decanoyl acetaldehyde]", "values": [
      {"measurement": "inhibitory effect in vitro", "setting": "[1]", "value": "marked inhibitory effect"},
      {"measurement": "effect in vitro", "setting": "[2]", "value": "strong effect"},
      {"measurement": "stability", "setting": "[3]", "value": "unstable and prone to polymerize"}
    ]},
    {"smiles": "CCCCCCCCCC(=O)CC(O)S(=O)(=O)O", "note": "(centres unmarked) [Commercial grade sodium houttuyfonate, sodium houttuyfonate]", "values": [
      {"measurement": "particle size distribution, mean", "setting": "[4]", "value": "approximately 145 μm"}
    ]},
    {"smiles": "CCCCCCCCCC(=O)CC(O)S(=O)(=O)O", "note": "(centres unmarked) [sodium houttuyfonate]", "values": [
      {"measurement": "solubility in cold water", "setting": "[5]; cold water", "value": "only slightly soluble"},
      {"measurement": "solubility in most organic solvents", "setting": "[5]; organic solvents such as acetonitrile and methanol", "value": "only slightly soluble"},
      {"measurement": "stability", "setting": "[3]", "value": "more stable"}
    ]}
  ]
}
